Columns and labels:
Assay type in all cases: in vivo
[1] = test system: field corn (Zea mays L., var. Dekalb 535, CORN); assay: Greenhouse herbicide screen, pre-emerge application, crop damage rating; details: PRE emergent, 14 days after application, rating scale 0-100
Excerpt: (§1) A standard greenhouse herbicide activity screening system was used to evaluate the herbicidal efficacy and crop safety of these test compounds. Seven broadleaf weed species including redroot pigweed (Amaranthus retrofiexus, AMARE), velvetleaf (Abutilon theophrasti, ABUTH), sicklepod (Cassia obtusifolia, CASOB), ivyleaf morningglory (Ipomoea hederacea, IPOHE), lambsquarters (Chenopodium album, CHEAL), common ragweed (Ambrosia artemisiifolia L., AMBEL), and cocklebur (Xanthium strumarium, XANST) were used as test species. Four grass weed species including green foxtail (Setaria viridis, SETVI), barnyardgrass (Echinochloa crus-galli, ECHCG), johnsongrass (Sorghum halepense, SORHA), and large crabgrass (Digitaria sanguinalis, DIGSA) were also used. In addition, four crop species, field corn (Zea mays L., var. Dekalb 535, CORN), soybean (Glycine max L., var. Pella 86, SOY), upland rice (Oryza sp., var.Cocodrie, RICE) and wheat (Triticum aestivum L.) were included.
(§2) All plants were grown in 10 cm square plastic pots which were filled with a sandy loam soil mix. For pre-emerge tests, seeds were planted one day prior to application of the test compounds. For post-emerge tests, seeds were planted 8-21 days prior to the test to allow emergence and good foliage development prior to application of the test substances. At the time of the post-emerge application, plants of all species were usually at the 2-3 leaf stage of development.
(§3) All test compounds were dissolved in acetone and applied to the test units in a volume of 187 l/ha. Test materials were applied at rates ranging from 15 g ai/ha to 1000 g ai/ha using a track sprayer equipped with a TJ8001E even flow flat fan spray nozzle. Plants were arranged on a shelf so that the top of the canopy (post-emerge) or top of the soil surface (pre-emerge) was 40-45 cm below the nozzle. Pressurized air was used to force the test solution through the nozzle as it was mechanically advanced (via electrically driven chain drive) over the top of all test plants/pots. This application simulates a typical commercial field herbicide application.
(§4) Pre-emergence tests were top watered immediately after treatment to incorporate the test materials, then routinely top-watered for normal growth. Post-emerge test units were always bottom-watered.
(§5) At 14 days after application of the test materials, phytotoxicity ratings were recorded. A rating scale of 0-100 was used as previously described in Research Methods in Weed Science, 2nd edition, B. Truelove, Ed., Southern Weed Science Society, Auburn University, Auburn, Ala., 1977. Briefly, “0” corresponds to no damage and “100” corresponds to complete death of all plants in the test unit. This scale was used both to determine efficacy against weed species and damage to crop species. Herbicide activity data for various compounds of this invention, which are shown by compound No. in Tables 1-12, are shown in Tables 13 and 14.

[2] = test system: upland rice (Oryza sp., var.Cocodrie, RICE); assay: as above; details: PRE emergent, 14 days after application, rating scale 0-100
Excerpt: as §1, §2, §3, §4, §5

[3] = test system: barnyardgrass (Echinochloa crus-galli, ECHCG); assay: Greenhouse herbicide screen, post-emerge application, phytotoxicity rating; details: POST emergent, 14 days after application, scale 0-100
Excerpt: as §1, §2, §3, §4, §5

[4] = test system: lambsquarters (Chenopodium album, CHEAL); assay: as above; details: POST emergent, 14 days after application, scale 0-100
Excerpt: as §1, §2, §3, §4, §5

[5] = test system: large crabgrass (Digitaria sanguinalis, DIGSA); assay: as above; details: POST emergent, 14 days after application, scale 0-100
Excerpt: as §1, §2, §3, §4, §5

[6] = test system: ivyleaf morningglory (Ipomoea hederacea, IPOHE); assay: as above; details: POST emergent, 14 days after application, scale 0-100
Excerpt: as §1, §2, §3, §4, §5

[7] = test system: redroot pigweed (Amaranthus retrofiexus, AMARE); assay: as above; details: POST emergent, 14 days after application
Excerpt: as §1, §2, §3, §4, §5

[8] = test system: green foxtail (Setaria viridis, SETVI); assay: as above; details: POST emergent, 14 days after application, scale 0-100
Excerpt: as §1, §2, §3, §4, §5

[9] = test system: johnsongrass (Sorghum halepense, SORHA); assay: as above; details: POST emergent, 14 days after application, scale 0-100
Excerpt: as §1, §2, §3, §4, §5

[10] = test system: sicklepod (Cassia obtusifolia, CASOB); assay: as above; details: POST emergent, 14 days after application, scale 0-100
Excerpt: as §1, §2, §3, §4, §5

[11] = test system: velvetleaf (Abutilon theophrasti, ABUTH); assay: as above; details: POST emergent, 14 days after application, scale 0-100
Excerpt: as §1, §2, §3, §4, §5

[12] = test system: common ragweed (Ambrosia artemisiifolia L., AMBEL); assay: as above; details: POST emergent, 14 days after application, scale 0-100
Excerpt: as §1, §2, §3, §4, §5

[13] = test system: cocklebur (Xanthium strumarium, XANST); assay: as above; details: POST emergent, 14 days after application, scale 0-100
Excerpt: as §1, §2, §3, §4, §5

[14] = test system: barnyardgrass (Echinochloa crus-galli, ECHCG); assay: Greenhouse herbicide screen, pre-emerge application, phytotoxicity rating; details: PRE emergent, 14 days after application, rating scale 0-100
Excerpt: as §1, §2, §3, §4, §5

[15] = test system: lambsquarters (Chenopodium album, CHEAL); assay: as above; details: PRE emergent, 14 days after application, rating scale 0-100
Excerpt: as §1, §2, §3, §4, §5

[16] = test system: large crabgrass (Digitaria sanguinalis, DIGSA); assay: as above; details: PRE emergent, 14 days after application, rating scale 0-100
Excerpt: as §1, §2, §3, §4, §5

[17] = test system: ivyleaf morningglory (Ipomoea hederacea, IPOHE); assay: as above; details: PRE emergent, 14 days after application, rating scale 0-100
Excerpt: as §1, §2, §3, §4, §5

[18] = test system: redroot pigweed (Amaranthus retrofiexus, AMARE); assay: as above; details: PRE emergent, 14 days after application, rating scale 0-100
Excerpt: as §1, §2, §3, §4, §5

[19] = test system: green foxtail (Setaria viridis, SETVI); assay: as above; details: PRE emergent, 14 days after application, rating scale 0-100
Excerpt: as §1, §2, §3, §4, §5

[20] = test system: johnsongrass (Sorghum halepense, SORHA); assay: as above; details: PRE emergent, 14 days after application, rating scale 0-100
Excerpt: as §1, §2, §3, §4, §5

[21] = test system: sicklepod (Cassia obtusifolia, CASOB); assay: as above; details: PRE emergent, 14 days after application, rating scale 0-100
Excerpt: as §1, §2, §3, §4, §5

[22] = test system: velvetleaf (Abutilon theophrasti, ABUTH); assay: as above; details: PRE emergent, 14 days after application, rating scale 0-100
Excerpt: as §1, §2, §3, §4, §5

[23] = test system: common ragweed (Ambrosia artemisiifolia L., AMBEL); assay: as above; details: PRE emergent, 14 days after application, rating scale 0-100
Excerpt: as §1, §2, §3, §4, §5

[24] = test system: cocklebur (Xanthium strumarium, XANST); assay: as above; details: PRE emergent, 14 days after application, rating scale 0-100
Excerpt: as §1, §2, §3, §4, §5

[25] = test system: field corn (Zea mays L., var. Dekalb 535, CORN); assay: Greenhouse herbicide screen, post-emerge application, crop damage rating; details: POST emergent, 14 days after application, scale 0-100
Excerpt: as §1, §2, §3, §4, §5

[26] = test system: upland rice (Oryza sp., var.Cocodrie, RICE); assay: as above; details: POST emergent, 14 days after application, scale 0-100
Excerpt: as §1, §2, §3, §4, §5

CN1CCN(NC(=O)c2cc(-n3c(=O)cc(C(F)(F)F)n(C)c3=S)c(F)cc2Cl)CC1 [Compound 1-14]
30: phytotoxicity rating AMARE ([7]; 250 g ai/ha, scale 0-100) | phytotoxicity rating ABUTH ([22]; 63 g ai/ha)
50: crop damage rating RICE ([2]; 250 g ai/ha) | phytotoxicity rating AMBEL ([12]; 250 g ai/ha) | phytotoxicity rating CASOB ([21]; 250 g ai/ha) | crop damage rating CORN ([25]; 250 g ai/ha)
40: phytotoxicity rating XANST ([24]; 63 g ai/ha)
0: crop damage rating CORN ([1]; 63 g ai/ha) | crop damage rating CORN ([1]; 250 g ai/ha) | crop damage rating RICE ([2]; 63 g ai/ha) | phytotoxicity rating ECHCO ([3]; 63 g ai/ha) | phytotoxicity rating ECHCO ([3]; 250 g ai/ha) | phytotoxicity rating CHEAL ([4]; 63 g ai/ha) | phytotoxicity rating DIGSA ([5]; 63 g ai/ha) | phytotoxicity rating DIGSA ([5]; 250 g ai/ha) | phytotoxicity rating AMARE ([7]; 63 g ai/ha, scale 0-100 (0 no damage, 100 complete death)) | phytotoxicity rating SETVI ([8]; 63 g ai/ha) | phytotoxicity rating SETVI ([8]; 250 g ai/ha) | phytotoxicity rating SORHA ([9]; 63 g ai/ha) | phytotoxicity rating SORHA ([9]; 250 g ai/ha) | phytotoxicity rating CASOB ([10]; 63 g ai/ha) | phytotoxicity rating CASOB ([10]; 250 g ai/ha) | phytotoxicity rating ABUTH ([11]; 63 g ai/ha) | phytotoxicity rating AMBEL ([12]; 63 g ai/ha) | phytotoxicity rating ECHCG ([14]; 63 g ai/ha) | phytotoxicity rating SETVI ([19]; 63 g ai/ha) | phytotoxicity rating CASOB ([21]; 63 g ai/ha) | crop damage rating CORN ([25]; 63 g ai/ha) | crop damage rating RICE ([26]; 63 g ai/ha) | crop damage rating RICE ([26]; 250 g ai/ha)
10: phytotoxicity rating IPOHE ([17]; 63 g ai/ha)
65: phytotoxicity rating IPOHE ([17]; 250 g ai/ha) | phytotoxicity rating XANST ([24]; 250 g ai/ha)
100: phytotoxicity rating IPOHE ([6]; 63 g ai/ha) | phytotoxicity rating IPOHE ([6]; 250 g ai/ha) | phytotoxicity rating CHEAL ([15]; 63 g ai/ha) | phytotoxicity rating CHEAL ([15]; 250 g ai/ha) | phytotoxicity rating AMARE ([18]; 250 g ai/ha)
70: phytotoxicity rating CHEAL ([4]; 250 g ai/ha) | phytotoxicity rating XANST ([13]; 63 g ai/ha) | phytotoxicity rating XANST ([13]; 250 g ai/ha) | phytotoxicity rating ECHCG ([14]; 250 g ai/ha) | phytotoxicity rating DIGSA ([16]; 250 g ai/ha) | phytotoxicity rating SORHA ([20]; 63 g ai/ha) | phytotoxicity rating AMBEL ([23]; 250 g ai/ha)
90: phytotoxicity rating ABUTH ([22]; 250 g ai/ha)
95: phytotoxicity rating AMARE ([18]; 63 g ai/ha) | phytotoxicity rating SORHA ([20]; 250 g ai/ha)
55: phytotoxicity rating DIGSA ([16]; 63 g ai/ha) | phytotoxicity rating SETVI ([19]; 250 g ai/ha)
35: phytotoxicity rating ABUTH ([11]; 250 g ai/ha) | phytotoxicity rating AMBEL ([23]; 63 g ai/ha)
